Reference: patent publication US10774051B2, “6-membered heterocyclic derivatives and pharmaceutical composition comprising the same” (Shionogi & Co., Ltd., priority 2015, dated 2020)

molecular target: human P2X7 receptor (Homo sapiens, UniProt Q99572, R270H/Y155H); assay: Evaluation of human P2X7 receptor inhibitory activity (Yo-Pro uptake, BzATP stimulation, FLIPR TETRA); assay type: cell-based; settings: 1321N1 cells stably expressing human P2X7 receptor; BzATP stimulation, Yo-Pro uptake; read-out: IC50 (antagonistic activity for the human P2X7 receptor)
Outline: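 1321N1 cells stably expressing human P2X7 (T606C/G952A SNP variant), in HBSS buffer pH 7.4-7.5 with Yo-Pro, stimulated with BzATP; compound added 8 min after agonist. Fluorescence followed for 20 min on FLIPR; max-minus-min change gave % inhibition, IC50 by logistic fit.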

Structure (SMILES) | IC50 [nM]
COc1cn(Cc2ccsc2)c(Nc2cc(C)c(C)cc2C)nc1=O [Compound I-0738] | 3
COc1cn(Cc2ccc(F)c(Cl)c2)c(Nc2cc3c(cc2C)OCO3)nc1=O [Compound I-0742] | 16
COc1cn(Cc2ccccc2)c(Nc2cc3nc(C)sc3cc2C)nc1=O [Compound I-0744] | 180
COc1cn(Cc2ccc(F)c(Cl)c2)c(Nc2cc(S(C)(=O)=O)cc(C)c2C)nc1=O [Compound I-0755] | 12
COc1cn(Cc2ccc(F)c(Cl)c2)c(Nc2cc3ncccc3cc2C)nc1=O [Compound I-0771] | 43
COc1cn(Cc2cc(F)cc(F)c2)c(Nc2cc3ncccc3cc2C)nc1=O [Compound I-0774] | 110
Cc1nc2cc(C)c(Nc3nc(=O)c(Cl)cn3Cc3ccccc3)cc2s1 [Compound I-0786] | 25
Cc1nc2cc(C)c(Nc3nc(=O)c(F)cn3Cc3ccccc3)cc2s1 [Compound I-0788] | 12
CCOc1cc(Nc2nc(=O)c(OC)cn2Cc2ccc(F)c(Cl)c2)c(C)cc1C [Compound I-0792] | 9

same assay, conditions: antagonistic activity for the human P2X7 receptor; read-out: IC50

Structure (SMILES) | IC50 [nM]
COc1cn(Cc2ccc(F)c(Cl)c2)c(Nc2cc3c(cc2C)OC(F)(F)O3)nc1=O [Compound I-0727] | 100 to 500
CCc1cc2c(cc1Nc1nc(=O)c(OC)cn1Cc1ccccc1)OC(F)(F)O2 [Compound I-0728] | 100 to 500
CCc1cc2c(cc1Nc1nc(=O)c(OC)cn1Cc1cc(F)cc(F)c1)OC(F)(F)O2 [Compound I-0729] | 100 to 500
CCc1cc2c(cc1Nc1nc(=O)c(OC)cn1Cc1ccc(F)c(Cl)c1)OC(F)(F)O2 [Compound I-0730] | 10 to 100
COc1cn(Cc2ccccc2)c(Nc2cc(C(C)(C)O)ccc2C)nc1=O [Compound I-0731] | 10 to 100
COc1cn(Cc2ccc(F)c(F)c2)c(Nc2cc(C(C)(C)O)ccc2C)nc1=O [Compound I-0732] | 10 to 100
COc1cn(Cc2ccc(F)c(Cl)c2)c(Nc2cc(-c3ccnn3C)ccc2C)nc1=O [Compound I-0733] | 10 to 100
COc1cn(Cc2cc(F)cc(Cl)c2)c(Nc2cc(-c3ccnn3C)ccc2C)nc1=O [Compound I-0734] | 10 to 100
COc1cn(Cc2ccc(F)c(Cl)c2)c(Nc2cc(N3CCOCC3)ccc2C)nc1=O [Compound I-0735] | 10 to 100
COc1cn(Cc2ccc(F)c(F)c2)c(Nc2cc(N3CCOCC3)ccc2C)nc1=O [Compound I-0736] | 10 to 100
COc1cn(Cc2cc(F)cc(Cl)c2)c(Nc2cc(N3CCOCC3)ccc2C)nc1=O [Compound I-0737] | 10 to 100
COc1ccc(Nc2nc(=O)c(OC)cn2Cc2ccc(F)cc2)c(C)c1 [Compound I-0739] | 10 to 100
COc1cn(Cc2ccccc2)c(Nc2cc(N3CCOCC3)ccc2C)nc1=O [Compound I-0740] | 100 to 500
COc1cn(Cc2cc(F)cc(F)c2)c(Nc2cc3c(cc2C)OCO3)nc1=O [Compound I-0741] | 10 to 100
CCc1cc2c(cc1Nc1nc(=O)c(OC)cn1Cc1cc(F)cc(F)c1)OCO2 [Compound I-0743] | 10 to 100
COc1cn(Cc2cc(F)cc(F)c2)c(Nc2cc3nc(C)sc3cc2C)nc1=O [Compound I-0745] | 100 to 500
COc1cn(Cc2ccc(F)c(Cl)c2)c(Nc2cc3nc(C)sc3cc2C)nc1=O [Compound I-0746] | 10 to 100
C=C(C)c1ccc(C)c(Nc2nc(=O)c(OC)cn2Cc2ccc(F)c(F)c2)c1 [Compound I-0747] | 10 to 100
C=C(C)c1ccc(C)c(Nc2nc(=O)c(OC)cn2Cc2cc(F)cc(Cl)c2)c1 [Compound I-0748] | 10 to 100
C=C(C)c1ccc(C)c(Nc2nc(=O)c(OC)cn2Cc2cc(F)cc(F)c2)c1 [Compound I-0749] | 10 to 100
COc1cn(Cc2ccccc2)c(Nc2cc(-c3cscn3)ccc2C)nc1=O [Compound I-0750] | 10 to 100
COc1cn(Cc2ccc(F)c(F)c2)c(Nc2cc(-c3cscn3)ccc2C)nc1=O [Compound I-0751] | < 10
COc1cn(Cc2cc(F)cc(Cl)c2)c(Nc2cc(-c3cscn3)ccc2C)nc1=O [Compound I-0752] | 10 to 100

Structure (SMILES) | IC50 [nM]
COc1cn(Cc2cc(F)cc(F)c2)c(Nc2cc(-c3cscn3)ccc2C)nc1=O [Compound I-0753] | < 10
COc1cn(Cc2ccccc2)c(Nc2cc(S(C)(=O)=O)cc(C)c2C)nc1=O [Compound I-0754] | 10 to 100
COc1cn(Cc2ccc(F)c(F)c2)c(Nc2cc(S(C)(=O)=O)cc(C)c2C)nc1=O [Compound I-0756] | 10 to 100
COc1cn(Cc2cc(F)cc(Cl)c2)c(Nc2cc(S(C)(=O)=O)cc(C)c2C)nc1=O [Compound I-0757] | 10 to 100
COc1cn(Cc2cc(F)cc(F)c2)c(Nc2cc(S(C)(=O)=O)cc(C)c2C)nc1=O [Compound I-0758] | 10 to 100
CCOc1cn(Cc2ccccc2)c(Nc2cc(OC)c(OC)cc2C)nc1=O [Compound I-0759] | 10 to 100
COc1cn(Cc2cc(F)c(F)c(F)c2)c(Nc2cc3nc(C)sc3cc2C)nc1=O [Compound I-0760] | 10 to 100
COc1cn(Cc2ccccc2)c(Nc2cccc(C)c2F)nc1=O [Compound I-0761] | 100 to 500
COc1cn(Cc2ccccc2)c(Nc2cccc(C)c2F)nc1=O [Compound I-0762] | 100 to 500
COc1cc(C)c(Nc2nc(=O)c(OC)cn2Cc2cc(F)c(F)c(F)c2)cc1Cl [Compound I-0763] | < 10
COc1cn(Cc2ccc(F)c(F)c2)c(Nc2cc(-c3cccnc3)ccc2C)nc1=O [Compound I-0764] | < 10
COc1cn(Cc2cc(F)cc(Cl)c2)c(Nc2cc(-c3cccnc3)ccc2C)nc1=O [Compound I-0765] | 10 to 100
COc1cn(Cc2cc(F)cc(F)c2)c(Nc2cc(-c3cccnc3)ccc2C)nc1=O [Compound I-0766] | < 10
COc1cn(Cc2ccc(F)c(F)c2)c(Nc2cc(-c3ccc(C)o3)ccc2C)nc1=O [Compound I-0767] | 10 to 100
COc1cn(Cc2cc(F)cc(Cl)c2)c(Nc2cc(-c3ccc(C)o3)ccc2C)nc1=O [Compound I-0768] | 10 to 100
COc1cn(Cc2cc(F)cc(F)c2)c(Nc2cc(-c3ccc(C)o3)ccc2C)nc1=O [Compound I-0769] | 10 to 100
COc1cn(Cc2ccccc2)c(Nc2cc3ncccc3cc2C)nc1=O [Compound I-0770] | 100 to 500
COc1cn(Cc2ccc(F)c(F)c2)c(Nc2cc3ncccc3cc2C)nc1=O [Compound I-0772] | 10 to 100
COc1cn(Cc2cc(F)cc(Cl)c2)c(Nc2cc3ncccc3cc2C)nc1=O [Compound I-0773] | 100 to 500
COc1cn(Cc2ccc(F)c(Cl)c2)c(Nc2cc(C(C)(C)O)ccc2C)nc1=O [Compound I-0775] | 10 to 100
COc1cn(Cc2cc(F)cc(Cl)c2)c(Nc2cc(C(C)(C)O)ccc2C)nc1=O [Compound I-0776] | 10 to 100
CCOc1cc(Nc2nc(=O)c(OC)cn2Cc2cc(F)c(F)c(F)c2)c(C)cc1C [Compound I-0777] | < 10
Cc1nc2cc(C)c(Nc3nc(=O)c(F)cn3Cc3ccc(F)c(Cl)c3)cc2s1 [Compound I-0778] | < 10

Structure (SMILES) | IC50 [nM]
COc1cc(Nc2nc(=O)c(OC)cn2Cc2ccc(F)c(F)c2)c(C)cc1F [Compound I-0779] | < 10
COc1cc(Nc2nc(=O)c(OC)cn2Cc2cc(F)cc(Cl)c2)c(C)cc1F [Compound I-0780] | 10 to 100
COc1cc(Nc2nc(=O)c(OC)cn2Cc2cc(F)cc(F)c2)c(C)cc1F [Compound I-0781] | 10 to 100
COc1cn(Cc2ccccc2)c(Nc2cc(-c3ccnn3C)ccc2C)nc1=O [Compound I-0782] | 100 to 500
COc1cn(Cc2ccc(F)c(F)c2)c(Nc2cc(-c3ccnn3C)ccc2C)nc1=O [Compound I-0783] | 10 to 100
COc1cn(Cc2cc(F)cc(F)c2)c(Nc2cc(-c3ccnn3C)ccc2C)nc1=O [Compound I-0784] | 10 to 100
COc1cn(Cc2cc(F)cc(F)c2)c(Nc2cc(C(C)(C)O)ccc2C)nc1=O [Compound I-0785] | 10 to 100
Cc1nc2cc(C)c(Nc3nc(=O)c(Cl)cn3Cc3ccc(F)c(Cl)c3)cc2s1 [Compound I-0787] | < 10
CCOc1cc(Nc2nc(=O)c(OC)cn2Cc2cc(F)cc(Cl)c2)c(C)cc1C [Compound I-0789] | < 10
CCOc1cc(Nc2nc(=O)c(OC)cn2Cc2ccccc2)c(C)cc1C [Compound I-0790] | < 10
CCOc1cc(Nc2nc(=O)c(OC)cn2Cc2cccc(Cl)c2)c(C)cc1C [Compound I-0791] | < 10
CCOc1cc(Nc2nc(=O)c(OC)cn2Cc2ccc(F)c(F)c2)c(C)cc1C [Compound I-0793] | < 10
CCOc1cc(Nc2nc(=O)c(OC)cn2Cc2cc(F)cc(F)c2)c(C)cc1C [Compound I-0794] | < 10
CCOc1cn(Cc2ccc(F)c(Cl)c2)c(Nc2cc(OC)c(OC)cc2C)nc1=O [Compound I-0795] | < 10
CCc1cc2c(cc1Nc1nc(=O)c(OC)cn1Cc1ccccc1)OCCO2 [Compound I-0796] | 10 to 100
CCc1cc2c(cc1Nc1nc(=O)c(OC)cn1Cc1cc(F)cc(F)c1)OCCO2 [Compound I-0797] | 10 to 100
CCc1cc2c(cc1Nc1nc(=O)c(OC)cn1Cc1ccc(F)c(Cl)c1)OCCO2 [Compound I-0798] | 10 to 100
COc1cn(Cc2ccc(F)c(Cl)c2)c(Nc2ccc3occc3c2C)nc1=O [Compound I-0799] | < 10
COc1cn(Cc2ccccc2)c(Nc2cc(C)c(OCC(F)(F)F)cc2C)nc1=O [Compound I-0800] | 10 to 100
COc1cn(Cc2ccccc2)c(Nc2cc(C)c(Cl)cc2F)nc1=O [Compound I-0801] | 100 to 500
COc1cn(Cc2cc(F)c(F)c(F)c2)c(Nc2cc(-c3cscn3)ccc2C)nc1=O [Compound I-0802] | < 10
COc1cn(Cc2cc(F)c(F)c(F)c2)c(Nc2cc(N3CCCC3=O)ccc2C)nc1=O [Compound I-0803] | 10 to 100
COc1cc(C)c(Nc2nc(=O)c(OC)cn2Cc2cc(F)c(F)c(F)c2)cc1F [Compound I-0804] | < 10
